Experimental findings from ChEMBL document CHEMBL1123987, “Oral absorption of cephalosporin antibiotics. 3. Synthesis and biological properties of 7 alpha-methoxy-7 beta-(arylacetamido)-3-chloro-3-cephem-4-carboxylic acids” (1988) are described below.

In brackets after ≈: the same amount, converted by molar mass. Where only a bound is given, the exact number is not on record here.

Type in all cases: functional
One assay deals with Escherichia coli. The assay can be described thus: Minimum inhibitory concentration against Escherichia coli.
Assay [1] relates to Haemophilus influenzae. The assay can be described thus: Minimum inhibitory concentration against H influenzae(beta-lactamase (-)).
In the next assay the test system is Staphylococcus aureus. As to the kind of experiment: Minimum inhibitory concentration against Staphylococcus aureus.
The test system of another assay is Streptococcus pneumoniae. As to the kind of experiment: Minimum inhibitory concentration against Streptococcus pneumoniae.
Assay [2] concerns Haemophilus influenzae. As to the kind of experiment: Minimum inhibitory concentration against Haemophilus influenzae (beta-lactamase (+)).
The next assay relates to Streptococcus pyogenes. As to the kind of experiment: Minimum inhibitory concentration against Streptococcus pyogenes.
The subject of assay [3] is Haemophilus influenzae. As to the kind of experiment: Minimum inhibitory concentration against H influenzae (beta-lactamase (-)).

With `CO[C@@]1(NC(=O)Cc2csc(N)n2)C(=O)N2C(C(=O)O)=C(Cl)CSC21` (some centres not stated), the MIC turned out to be 8 µg/mL (≈ 19.8 µM) with Escherichia coli; 16 µg/mL (≈ 39.5 µM) with Haemophilus influenzae [1]; 16 µg/mL (≈ 39.5 µM) in the assay on Staphylococcus aureus; 0.5 µg/mL (≈ 1.24 µM) against Streptococcus pneumoniae; 16 µg/mL (≈ 39.5 µM) in the assay on Haemophilus influenzae [2]; 1 µg/mL (≈ 2.47 µM) against Streptococcus pyogenes.
On to `O=C(COc1ccccc1)N[C@@H]1C(=O)N2C(C(=O)O)=C(Cl)CSC12` (some centres not stated), for which the MIC in the assay with Escherichia coli stood at 64 µg/mL (≈ 174 µM); with Staphylococcus aureus it was 0.25 µg/mL (≈ 0.678 µM); with Streptococcus pneumoniae, 0.25 µg/mL (≈ 0.678 µM); against Haemophilus influenzae [3] it was 2 µg/mL (≈ 5.42 µM); against Haemophilus influenzae [2], 2 µg/mL (≈ 5.42 µM); against Streptococcus pyogenes it was 0.125 µg/mL (≈ 0.339 µM).
Regarding `Nc1nc(CC(=O)N[C@@H]2C(=O)N3C(C(=O)O)=C(Cl)CSC23)cs1` (some centres not stated), the MIC came to 1 µg/mL (≈ 2.67 µM) in the assay on Escherichia coli; 1 µg/mL (≈ 2.67 µM) against Haemophilus influenzae [1]; 1 µg/mL (≈ 2.67 µM) with Staphylococcus aureus; 0.5 µg/mL (≈ 1.33 µM) in the assay with Streptococcus pneumoniae; 1 µg/mL (≈ 2.67 µM) in the assay on Haemophilus influenzae [2]; 0.125 µg/mL (≈ 0.333 µM) with Streptococcus pyogenes.
`CO[C@@]1(NC(=O)Cc2cccs2)C(=O)N2C(C(=O)O)=C(Cl)CSC21` (some centres not stated): the MIC in the assay with Escherichia coli is greater than 128 µg/mL; in the assay with Haemophilus influenzae [1] it was greater than 128 µg/mL; in the assay with Staphylococcus aureus, greater than 128 µg/mL; in the assay on Streptococcus pneumoniae it was 128 µg/mL (≈ 329 µM); in the assay with Haemophilus influenzae [2] it was greater than 128 µg/mL; in the assay on Streptococcus pyogenes it was 128 µg/mL (≈ 329 µM).
For `CO[C@@]1(NC(=O)COc2ccccc2)C(=O)N2C(C(=O)O)=C(Cl)CSC21` (some centres not stated), the MIC is greater than 128 µg/mL with Escherichia coli; greater than 128 µg/mL in the assay with Haemophilus influenzae [1]; greater than 128 µg/mL against Staphylococcus aureus; 128 µg/mL (≈ 321 µM) against Streptococcus pneumoniae; greater than 128 µg/mL against Haemophilus influenzae [2]; 128 µg/mL (≈ 321 µM) against Streptococcus pyogenes.
On to `O=C(Cc1cccs1)N[C@@H]1C(=O)N2C(C(=O)O)=C(Cl)CSC12` (some centres not stated), for which the MIC with Escherichia coli was found to be 4 µg/mL (≈ 11.1 µM); against Haemophilus influenzae [1], 1 µg/mL (≈ 2.79 µM); with Staphylococcus aureus, 0.5 µg/mL (≈ 1.39 µM); against Streptococcus pneumoniae, 0.125 µg/mL (≈ 0.348 µM); with Haemophilus influenzae [2] it was 1 µg/mL (≈ 2.79 µM); with Streptococcus pyogenes, 0.125 µg/mL (≈ 0.348 µM).
For `N[C@@H](C(=O)N[C@@H]1C(=O)N2C(C(=O)O)=C(Cl)CS[C@H]12)c1ccccc1.O` [CEFACLOR], the MIC against Escherichia coli was found to be 1 µg/mL; against Haemophilus influenzae [1], 1 µg/mL; in the assay with Staphylococcus aureus, 1 µg/mL; against Streptococcus pneumoniae, 0.5 µg/mL; in the assay with Haemophilus influenzae [2], 2 µg/mL; in the assay with Streptococcus pyogenes, 0.25 µg/mL.
